Columns and labels:
[1] = tested on: collagen-induced arthritis; assay: Collagen-induced arthritis inhibitory test; assay type: in vivo, mice; details: for Inhibitory rate: score of arthritis on the 52nd day after the first immunization vs control group, male DBA/IJ mice
Method: Collagen-induced arthritis inhibitory test is an experimental model for rheumatoid arthritis reported by Trethan, D. E. et al. [cf. […] J. Immunol., 140, 78-83 (1988)].
Collagen-induced arthritis inhibitory test was carried out according to the method of Kakimoto, K. et al. (cf. above reference of Kakimoto, K. et al.) with slight modification. That is, solubilized bovine cartilage type II collagen (product of Elastine Products, U.S.A.) was emulsified in complete Freund's adjuvant (product of DIFCO Lab., U.S.A.) to give a homogeneous emulsion. Male mice of DBA/IJ strain (6 week-old; product of Nippon Charles River, Japan) were immunized by injection at the base of the tail with 150 μg of the emulsified collagen. Twenty one days after the first immunization, arthritis was induced by a booster immunization of 150 μg of the emulsified collagen prepared in the same manner as above at the base of the tail again. A test compound was orally administered 5 days a week except for Saturdays and Sundays, which was started on the day of the first immunization and continued until the termination of the experiment. Mice were daily observed since the 8th day after the booster immunization for the onset of arthritis, and an arthritic score was derived by grading the severity of involvement of each paw five scales according to the method of Wood, F. D. et al. [cf. Int. Arch. Allergy Appl. The severity of arthritis was estimated by the sum of the scores of all 4 paws of both forepaws and both hind paws, and the onset of the disease was considered when score 1 was observed.
The inhibitory rate was obtained by comparing the score of arthritis on the 52nd day after the first immunization with that of the control group.

male mice of ICR strain = assay: Subacute toxicity test (repetitive oral administration for 14 days); assay type: in vivo; parameters: key to ALT (alanine aminotransferase), significance vs solvent-treated control: −: no significant differences (Student's t-test); +: p < 0.05 (Student's t-test); ++: p < 0.01 (Student's t-test); details: for ALT (alanine aminotransferase) vs vehicle-treated control group (in words) / AST (aspartate aminotransferase) vs vehicle-treated control group / BUN (blood urea nitrogen) vs vehicle-treated control group / wet-weights of various organs such as liver, spleen vs vehicle-treated control group / change in the body weight during the test vs vehicle-treated control group: 14 days oral; for ALT (alanine aminotransferase) vs vehicle-treated control group (in words) / AST (aspartate aminotransferase) vs vehicle-treated control group: parameter for liver dysfunction; for BUN (blood urea nitrogen) vs vehicle-treated control group: parameter for renal dysfunction; for wet-weights of various organs such as liver, spleen vs vehicle-treated control group: weight per body; for ALT (alanine aminotransferase), significance vs solvent-treated control: blood plasma; for ALT (alanine aminotransferase), significance vs solvent-treated control / Other remarks: male ICR mice; for change in the body weight during the test vs vehicle-treated control group: even at a high dose of 300 mg/kg; for Other remarks: remarks observed during the 14-day oral test
Method: Subacute toxicity test was carried out by repetitive administration of a test compound to mice for 14 days. That is, a test compound was orally administered to male mice of ICR strain once a day for 14 days. On the day following the final administration, the mice were anesthetized with Nembutal, and the blood was taken out therefrom, and further various organs were taken out. The wet-weight of each organ was determined, and was converted into a weight per body, and then compared. The blood plasma was subjected to various biochemical tests, mainly to tests for parameters for liver function and renal function. The results of these tests were statistically compared with those in the solvent-treated control group. The data of the biochemical tests, for example, ALT (alanine aminotransferase) as a parameter for liver dysfunction and other remarks observed during the test (see the column of “other remarks” in Table 3) are shown in Table 3.

[2] = dose 100 mg/kg orally once a day for 14 days
[3] = dose 200 mg/kg orally once a day for 14 days
[4] = dose 300 mg/kg orally once a day for 14 days

Compound	Inhibitory rate ([1]; dose 0.3 mg/kg orally)	Inhibitory rate ([1]; dose 10 mg/kg orally)	ALT (alanine aminotransferase) vs vehicle-treated control group (in words) (male mice of ICR strain)	AST (aspartate aminotransferase) vs vehicle-treated control group (male mice of ICR strain)	BUN (blood urea nitrogen) vs vehicle-treated control group (male mice of ICR strain)	wet-weights of various organs such as liver, spleen vs vehicle-treated control group (male mice of ICR strain)	ALT (alanine aminotransferase), significance vs solvent-treated control (male mice of ICR strain; [2])	ALT (alanine aminotransferase), significance vs solvent-treated control (male mice of ICR strain; [3])	ALT (alanine aminotransferase), significance vs solvent-treated control (male mice of ICR strain; [4])	change in the body weight during the test vs vehicle-treated control group (male mice of ICR strain)	Other remarks (male mice of ICR strain)	inhibitory effects (in words) ([1]; dose 3 mg/kg)	Inhibitory rate ([1]; dose 3 mg/kg orally)	effect on the above parameters (body weight, organ weights, ALT, AST, BUN) (male mice of ICR strain; dose 100 mg/kg)	effect on the liver (male mice of ICR strain; high dose of 300 mg/kg)	Inhibitory rate ([1]; dose 1 mg/kg orally)	anti-rheumatoid activity compared with Examples 1 and 2 ([1]; dose 3 mg/kg or less)	anti-rheumatoid activity compared with Examples 1 and 2 ([1]; dose 10 mg/kg)	side effect on liver and kidney (male mice of ICR strain; dose 100 mg/kg)
CN(C)C(=O)CNc1nc(-c2ccc(C(F)(F)F)cc2)nc(-c2ccccc2)c1Cl [Example 1, 2-[5-chloro-6-phenyl-2-(4-trifluoromethylphenyl)-4-pyrimidinylamino]-N,N-dimethylacetamide]	20.0%	96.0%	not significantly different	not significantly different	not significantly different	not significantly different	−	−	−	not significantly different	no particular remark								
CN(C(=O)CNc1nc(-c2ccc(C(F)(F)F)cc2)nc(-c2ccccc2)c1Cl)C1CC1 [Example 2, 2-[5-chloro-6-phenyl-2-(4-trifluoromethylphenyl)-4-pyrimidinylamino]-N-cyclopropyl-N-methylacetamide]	29.1%	96.6%	not significantly different	not significantly different	not significantly different	not significantly different	−	−	−	not significantly different	no particular remark								
CCCN(CCC)C(=O)CNc1nc(-c2ccc(C(F)(F)F)cc2)nc(C)c1C [Reference Example A, 2-[5,6-dimethyl-2-(4-trifluoro-methylphenyl)-4-pyrimidinylamino]-N,N-dipropylacetamide, reference compound]		73.2%					−	−	+ (p < 0.05 (Student's t-test))		no particular remark	hardly showed any inhibitory effects	15.5%	did not affect	did affect the liver in some degree				
Cc1nc(-c2ccc(C(F)(F)F)cc2)nc(NCC(=O)N(C)C)c1C [Reference Example B, 2-[5,6-dimethyl-2-(4-trifluoro-methylphenyl)-4-pyrimidinylamino]-N,N-dimethylacetamide]	0.0%	97.6%					++ (p < 0.01 (Student's t-test))				peritoneal fluid, renal damage		63.9%			41.8%	weaker than the compounds of Example 1 and Example 2	as potent as the compounds of Example 1 and Example 2	potent side effect on liver and kidney
